Laboratory results published in US7629140B2, “Assay for cytochrome P450 isoform 2C9” (Istituto di Richerche di Biologia Molecolare P. Angeletti …, priority 2004, dated 2009).

Assays:
[1] = molecular target: T1, CYP2C9 (Homo sapiens, UniProt P11712); experiment: in vitro
Procedure: (§1) Radiometric CYP2C9 assays using [4′-^3H]-diclofenac. […] (Woburn, Mass.). Inhibitors were added to the reaction mixture from stock solutions in DMSO/acetonitrile/water (35:25:40, v/v), giving final solvent concentrations of 0.7% DMSO and 0.5% acetonitrile. No inhibitor controls contained an equivalent amount of vehicle. Following preincubation for 10 minutes at 37° C., reactions were started by addition of 1 mM NADPH and an NADPH regenerating system containing 5 mM glucose-6-phosphate, 3 mM MgCl2, and 1 U/mL glucose-6-phosphate dehydrogenase. Assays were conducted for 10 minutes at 37° C. and stopped by addition of HCl to a final concentration of 0.1 N. Plates were then centrifuged for 10 minutes in a microplate rotor and supernatants loaded into the wells of a preconditioned 10 mg OASIS 96-well HLB plate. OASIS HLB 96 well extraction plates and vacuum manifold are available from Waters Corp., Newcastle, Del. Vacuum was applied and the void volume collected in the collection plate. Then, 75 μL of water was added, vacuum was applied again, and the wash was collected into the same plate. Pooled void volume and water wash were transferred into scintillation vials and counted in a beta-scintillation counter. Alternatively, aliquots were counted in 24- or 96-well scintillation plates using a TOPCOUNT scintillation counter (Packard, Perkin Elmer, Boston, Mass.). For the calculation of enzyme activity, product counts were corrected by subtraction of counts obtained in control incubations performed in the absence of NADPH regenerating system.
Quantification of 4′hydroxydiclofenac. Aliquots of the assay reaction mixture and of metabolite standard curves were analyzed by HPLC using an Agilent HP1100 liquid chromatograph (Agilent Technologies) equipped with a CTC Analytics PAL Autosampler (HTS PAL; CTC Analytics AG, Switzerland). Chromatography was performed on a XTERRA MS C18 column (4.6 mm×5 cm; 5 μm; Waters Corp., Medford, Mass.) at a flow rate of 2 mL/min, using a mobile phase consisting of a mixture of 0.1% formic acid in water (A) and 0.1% formic acid in acetonitrile (B) (linear gradient 0 to 0.5 min, 10% B; 3.0 min 90% B, 3.5 min 90% B, 3.6 min 10% B; the system was equilibrated for 1.4 minutes at 10% B prior to the next injection). The eluate was diverted to waste for the first minute, and then to a Sciex API-3000 triple quadruple mass spectrometer (available, for example, from Perkin Elmer, Boston, Mass.) with a Turbo Ionspray ionization source operated in the positive ion mode. […] Metabolite concentrations were determined by weighted linear least-squares regression analysis, using Analyst Quantitation Wizard software version 1.2 (Applied Biosystems, Foster City, Calif.).
To compare IC50 values of several known CYP2C9 inhibitors obtained in the radiometric assay with those obtained by conventional HPLC-mass spectrometric assay, reactions were performed in the absence or presence of different concentrations of known inhibitors. Tritiated water formation and formation of unlabelled reaction product 4′OH-diclofenac were determined in the same reaction mixture. The 4′-OH-diclofenac was quantified by HPLC coupled to triple quadruple mass spectrometric analysis.

[2] = molecular target: T1, CYP2C9; experiment: Radiometric CYP2C9 assay using [4′-3H]-diclofenac: formation of [3H]-H2O in pooled human liver microsomes
Procedure: as §1
Calculation of the apparent rate of formation of unlabelled product from tracer competition experiments. When assays are performed using a fixed amount of [4′-^3H]-diclofenac and varying concentrations of unlabelled diclofenac, the velocity of formation of unlabelled product, v, is given by: v=v*/SAP equation 3 where v* is the velocity of formation of tritiated water. Substituting from equation 2, we obtain: v=v*x(^TV/K)/SA0 equation 4 Defining v′ as the velocity of formation of unlabelled product divided by the kinetic isotope effect, i.e. v′=v/(^TV/K) equation 5 we obtain v′=v*/SA0 equation 6 Without using the known ^TV/K ratio (which would be tautological, since it was derived from SAP), v′, the apparent formation rate of unlabelled product, can be calculated. When plotted against the substrate concentration, S, and fitted to the Hill equation (equation 7), V′max, S50, the substrate concentration at 50%, and n, the Hill coefficient, can be derived.

[3] = molecular target: T1, CYP2C9; conditions: sulfaphenazole at 10 μM, 10 μM unlabelled diclofenac, FIG. 12
[4] = molecular target: T1, CYP2C9; conditions: Cohen et al.; cited from earlier work

T1 sequence (P11712 whole entry): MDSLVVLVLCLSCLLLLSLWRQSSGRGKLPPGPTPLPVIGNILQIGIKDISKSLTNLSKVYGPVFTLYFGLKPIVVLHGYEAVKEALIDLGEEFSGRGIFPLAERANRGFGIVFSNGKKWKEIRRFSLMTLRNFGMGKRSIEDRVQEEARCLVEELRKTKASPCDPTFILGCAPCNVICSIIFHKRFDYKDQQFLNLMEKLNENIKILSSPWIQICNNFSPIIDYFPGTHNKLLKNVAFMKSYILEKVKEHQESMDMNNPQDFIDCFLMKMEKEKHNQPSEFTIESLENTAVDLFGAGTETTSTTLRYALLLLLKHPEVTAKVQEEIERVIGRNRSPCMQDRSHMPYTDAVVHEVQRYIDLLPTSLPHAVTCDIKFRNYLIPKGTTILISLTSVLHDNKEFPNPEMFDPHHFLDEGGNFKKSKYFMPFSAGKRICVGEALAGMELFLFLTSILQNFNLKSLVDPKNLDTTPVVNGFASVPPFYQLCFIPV

| SMILES | IC50 [1] [µM] | IC50 [2] [µM] | Ratio (radiometric/conventional) [2] | further results |
| --- | --- | --- | --- | --- |
| Cc1ccc(C)c(OCCCC(C)(C)C(=O)O)c1 [Gemfibrozil] | 39.1 ± 7.1 | 27.7 ± 6.9 | 0.71 | – |
| COc1ccc2c(c1)c(CC(=O)O)c(C)n2C(=O)c1ccc(Cl)cc1 [Indomethacin] | 57 ± 10.5 | 54.8 ± 8.1 | 0.96 | – |
| COCC(=O)O[C@]1(CCN(C)CCCc2nc3ccccc3[nH]2)CCc2cc(F)ccc2[C@@H]1C(C)C [Mibefradil] | 57.6 ± 9.9 | 40 ± 5 | 0.69 | – |
| Clc1ccc(COC(Cn2ccnc2)c2ccc(Cl)cc2Cl)c(Cl)c1 (centres unmarked) [Miconazole] | 0.13 ± 0.03 | 0.2 ± 0.02 | 1.54 | – |
| COc1ccc2[nH]c([S+]([O-])Cc3ncc(C)c(OC)c3C)nc2c1 (centres unmarked) [Omeprazole] | 42.3 ± 15.3 | 43.8 ± 10.4 | 1.04 | – |
| CCCCC1C(=O)N(c2ccccc2)N(c2ccccc2)C1=O [Phenylbutazone] | 44.2 ± 2.2 | 41.4 ± 6.5 | 0.94 | – |
| CC(=O)[C@H]1CC[C@H]2[C@@H]3CCC4=CC(=O)CC[C@]4(C)[C@H]3CC[C@]12C [Progesterone] | 20 ± 4.6 | 25.2 ± 3.1 | 1.26 | – |
| CC(=O)C[C@@H](c1ccccc1)c1c(O)c2ccccc2oc1=O [S-Warfarin] | – | – | – | IC50 ([1]; read-out: IC50 (μM) Conventional, HLM, formation rate of 4′-hydroxydiclofenac by LC-MS/MS, same reaction mixture, mean ± SEM, n = 2): 8.7 ± 3.6 µM; IC50 ([2]; read-out: IC50 (μM) radiometric, HLM, formation rate of [3H]-H2O from [4′-3H]-diclofenac, mean ± SEM, n = 2): 14.6 ± 2.3 µM |
| Nc1ccc(S(=O)(=O)Nc2ccnn2-c2ccccc2)cc1 [Sulfaphenazole] | – | – | 0.96 | effect on NADPH-dependent formation of tritiated water from [4′-3H]-diclofenac in HLM (in words) ([2]; human, microsomes): inhibited; effect on formation of tritiated water from [4′-3H]diclofenac in human hepatocytes (in words) [3]: almost totally inhibited |
| O=C(O)Cc1ccccc1Nc1c(Cl)cccc1Cl [diclofenac] | – | – | – | Hill coefficient of 4′-hydroxydiclofenac formation ([1]; human, 10 min, pH 7.6): 1.1±0.1; Km at 10 min ([1]; human, microsomes, pH 7.6): 6.2 ± 0.9 µM; Km ([1]; human, pH 7.6): ~6 µM; ratio between V′max and Vmax [2]: 0.9; Hill coefficient n (v′ vs. S) ([2]; human, 10 min, pH 7.6): 1.15±0.05; V′max (apparent maximal rate of product formation) ([2]; human, 10 min, pH 7.6): 1.5 ± 0.1 nmol/min/mg; Km at 10 min ([2]; human, microsomes, pH 7.6): 6.8 ± 1 µM |
| Cc1nc2c([nH]1)c(=O)n(C)c(=O)n2Cc1ccco1 [furafylline] | – | – | – | effect on NADPH-dependent formation of tritiated water from [4′-3H]-diclofenac in HLM (in words) ([2]; human, microsomes): none of these agents significantly affected |
| CC(=O)CC(c1ccccc1)c1c(O)c2ccccc2oc1=O (centres unmarked) [warfarin] | – | – | – | inhibitor of CYP2C9 when probed with the fluorogenic substrate MFC [4]: not |
